Assay results from patent publication US7084248B2, “Peptide composition and method for delivering substances into the cytosol of cells” (Gene Tools, LLC, priority 2004, dated 2006).

System: cultured animal cells
Test: Functional assay of cytosolic delivery of a Morpholino antisense oligo (splice-correction luciferase system)
Format: cell-based
Details: all-histidine peptides
Description: In contrast to the above design flexibility, the respective sizes of the lipophilic and weak-base faces of the delivery peptide have a substantial impact on that peptide's delivery efficiency. […] These assays utilized an established functional measurement of cytosolic delivery of a Morpholino antisense oligo in cultured cells (Kang, 1998). A representative test procedure of this type is described in Example 6, in a later section of his application.
The most definitive assessment of cytosolic delivery is one wherein when a cargo is delivered into the cytosol of a cell it generates a quantifiable signal proportional to the amount of cargo delivered into the cytosol. Also, for definitive results, that cargo should be completely stable within the cytosol so that increases due to delivery are not underestimated due to losses from degradation.
In the Kole test system (commercially available from GENE TOOLS, LLC, Philomath, Oreg.) a cell line has been stably transfected with a gene that codes for an RNA transcript that includes a mutation that generates a splicing error which acts to prevent the translation of luciferase coded by that RNA transcript. […] This leads to normal translation of the luciferase, and the light emission from that luciferase is readily quantitated in a luminometer. […]

poly-histidine
delivery of a Morpholino antisense oligo into the cytosol of cultured animal cells: neither poly-histidine nor defined-length oligo-histidines achieved significant delivery
